# Experimental data as given in patent US8147892B2, “Kokumi flavour compounds and use” (Givaudan SA, priority 2005, dated 2012).
# “Also recorded” adds a separate entry of the source.
# Legend:
# sensory panel [1] = assay: Sensory triangle test in tomato juice; details: for Test results (sensory description vs reference): listed as γ-Glu-Cys-β-Ala
# Experimental: (§1) Unless otherwise indicated, all sensory tests are triangle tests and are performed according to the guidelines in “Amtliche Sammlung von Untersuchungsverfahren nach §35 LMBG (Lebensmittel-und Bedarfsgegenständegesetz)”; L 00.90 7, Untersuchung von Lebensmitteln, Sensorische Prüfverfahren, Dreiecksprüfung (Übemahme der gleichnahmigen Deutschen Norm DIN ISO 4120, Ausgabe January 1995), as follows:
# (§2) All sensory analyses are performed in a sensory panel room at 22-25° C. over three different sessions by a trained panel of 8 to 10 individuals.
# (§3) For recording the taste profiles, samples are prepared as indicated in the examples below. Taste profiles of samples are determined in a triangle test in three different sessions. Panellists refrain from eating or drinking for at least 1 hour prior to the session. At the start of the session and before each trial, the subject rinsed with water and expectorated. The participants receive a set of two blanks and one taste sample. Liquid samples are swirled around in the mouth briefly and expectorated. Solid samples are chewed for 20 seconds and then expectorated. […] Each sample with additive is compared to two reference samples without additives. Kokumi intensity is rated from 0-5 according to a scale from 0 to 5 (with 5 most intensive). The additive is added to a consumable and the sample is homogenised. The samples are presented to the sensory panel directly after homogenisation. The sensory panel included 8 trained individuals with exception of example 2, here the panel consists of 10 trained individuals.
# Glutathione and homoglutathione are added to tomato juice (Albi, Germany) in the concentrations indicated below.
# sensory panel [2] = assay: Sensory triangle test in ketchup; details: 2500 ppm; for Test results (sensory description vs reference): ketchup (Kraft)
# Experimental: as §1, §2, §3
# Glutathione (GSH) and homoglutathione (hGSH) are added to ketchup (Kraft) in a concentration of 2500 ppm.
# sensory panel [3] = assay: Sensory triangle test in cream cheese; details: 1000 ppm
# Source text: The sensory panel included 8 trained individuals with exception of example 2, here the panel consists of 10 trained individuals.
# The mixture is stirred until homogeneous.
# sensory panel [4] = assay: Sensory triangle test in chicken broth (kokumi intensity, taste profile); details: for Sensory descriptors / Kokumi intensity (0-5) / effect on mouthfulness and complexity of the taste profile: chicken broth; for Sensory descriptors / Kokumi intensity (0-5): pH 6.5; for Kokumi intensity (0-5): scale 0 to 5 (5 most intensive), negative control 2; for kokumi taste (found or not): tested as described in Example 1 (chicken broth), concentration not given
# Experimental: as §1
# The sensory panel is trained to evaluate the taste of aqueous solutions (4 ml each) of the following standard taste compounds by using a triangle test as described in the literature (Wieser and Belitz, Z. Lebensm. Unters. Forsch., 1975, 159, 65-72): sucrose (40 mmol/L) for sweet taste; citric acid (5 mmol/L) for sour taste; NaCl (12 mmol/L salty taste; caffeine (2 mmol/L) for bitter taste; and monosodium glutamate (MSG; 6 mmol/L) for umami taste. For kokumi taste, a solution of glutathione (10 mmol/L) in diluted chicken broth concentrate (Goumet Bouillon Huhn, Maggi, Singen, Germany; 3 g/100 g bottled water (Evian®)) is prepared and compared to the taste of chicken broth with no glutathione added.
# as §2, §3
# Chicken Broth is prepared by dilution of 3 g chicken broth concentrate (Gourmet Bouillon Huhn; Maggi, Singen, Germany) with 100 ml water (Evian). Additives are added as specified in table below.
# The pH-value of all samples is adjusted to 6.5 using formic acid (0.1 moVL) or sodium hydroxide (0.1 mol/L).
# For each sample, kokumi intensity is rated and panelists are asked to describe sensory characteristics.
# Compounds of formula I as listed in the table below are tested in chicken broth (prepared as described in example 1) and compared to hGSH.
smiles,measurement,setting,value
"N[C@@H](CCC(=O)N[C@@H](CS)C(=O)NCCC(=O)O)C(=O)O [hGSH, Gamma-L-glutamyl-L-cysteinyl-beta-alanine]",panelists preferring the sample,sensory panel [1]; 250 ppm,7 out of 8 panelists
same,Test results (sensory description vs reference),sensory panel [1]; 250 ppm,more intensive and well-balanced kokumi taste
same,Test results (sensory description vs reference),sensory panel [1]; 5000 ppm,even more pronounced kokumi sensation compared to an isoconcentrated glutathione sample
same,Test results (sensory description vs reference),sensory panel [2],"more meaty, bouillon-like, and intensified overall taste"
same,"panelists indicating more meaty, bouillon-like, and intensified overall taste",sensory panel [2]; ketchup,7 out of 8 panelists
same,Test results (sensory description vs reference),"sensory panel [3]; cream cheese (Philadelphia, Kraft)","more mouthfulness, richness, and kokumi-like complexity"
same,panelists finding the sample different from the reference sample and preferred,sensory panel [3]; cream cheese,9 out of a panel of 10
same,Sensory descriptors,sensory panel [4]; additive 10 mmol/L,"increases the mouthfulness, complexity, and long lasting taste sensation"
same,Kokumi intensity (0-5),sensory panel [4]; additive 10 mmol/L,4.0
[Cl-].[Na+] [NaCl],Sensory descriptors,sensory panel [4]; additive 30 mmol/L,increased salt taste
same,Sensory descriptors,"sensory panel [4]; additive 30 mmol/L, listed as NaCI",more salty than the negative control
same,Kokumi intensity (0-5),sensory panel [4]; additive 30 mmol/L,2
same,effect on mouthfulness and complexity of the taste profile,sensory panel [4]; positive control 30 mmol/L,no effect on mouthfulness and complexity
N[C@@H](CSSC[C@H](N)C(=O)O)C(=O)O [Cys-S—S-Cys],kokumi taste (found or not),sensory panel [4],not to have a kokumi taste
NC(=O)C[C@H](N)C(=O)O [Asn],kokumi taste (found or not),sensory panel [4],not to have a kokumi taste
N[C@@H](CS)C(=O)O [Cys],kokumi taste (found or not),sensory panel [4],not to have a kokumi taste
"N[C@@H](CCC(=O)O)C(=O)[O-].[Na+] [MSG, mono sodium glutamate]",Sensory descriptors,sensory panel [4]; additive 10 mmol/L,higher umami (taste of MSG) intensity; also recorded: Increased umami taste
same,effect on mouthfulness and complexity of the taste profile,sensory panel [4]; positive control 10 mmol/L,no effect on mouthfulness and complexity
N[C@@H](CC(=O)O)C(=O)O [Asp],kokumi taste (found or not),sensory panel [4],not to have a kokumi taste
"N[C@@H](CCC(=O)N[C@@H](CS)C(=O)NCC(=O)O)C(=O)O [GSH, Gamma-L-glutamyl-L-cysteinyl-glycine]",Test results (sensory description vs reference),sensory panel [2],the observed effect is lower
NC(=O)CC[C@H](N)C(=O)O [Gln],kokumi taste (found or not),sensory panel [4],not to have a kokumi taste
C[C@H](N)C(=O)O [Ala],kokumi taste (found or not),sensory panel [4],not to have a kokumi taste
N[C@@H](CCC(=O)O)C(=O)O [Glu],kokumi taste (found or not),sensory panel [4],not to have a kokumi taste
NCCC(=O)O [β-Ala],kokumi taste (found or not),sensory panel [4],not to have a kokumi taste
